Entries after “also recorded” stand apart in the source; their conditions may differ.
Tests used:
Notum [1] = molecular target: T1, Notum (Homo sapiens, UniProt Q6P988, C330S); test: Thermal shift assay (SYPRO Orange) of Notum; conditions: compound 500 µM; for Thermoflour melting curve fluorescence of Notum: Fig 2c
T1 sequence (Q6P988 81-451 C330S): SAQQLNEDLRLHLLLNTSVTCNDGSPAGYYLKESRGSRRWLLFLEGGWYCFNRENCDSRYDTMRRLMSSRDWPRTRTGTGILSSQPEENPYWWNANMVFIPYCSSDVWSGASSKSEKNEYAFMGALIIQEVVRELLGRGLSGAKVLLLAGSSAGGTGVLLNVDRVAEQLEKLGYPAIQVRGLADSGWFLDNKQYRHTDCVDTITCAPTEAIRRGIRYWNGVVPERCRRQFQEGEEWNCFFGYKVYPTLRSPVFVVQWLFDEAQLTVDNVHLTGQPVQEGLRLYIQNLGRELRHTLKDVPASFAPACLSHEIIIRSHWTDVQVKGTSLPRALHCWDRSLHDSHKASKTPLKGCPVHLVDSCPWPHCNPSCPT
Description: Reference wells, i.e. solutions without compounds were used to compare the melting temperature (Tm). The experiments were performed in triplicate.

Notum [2] = molecular target: T1, Notum; test: SPR equilibrium binding to biotinylated Notum on streptavidin chip; parameters: The human Notum enzyme core comprising amino acids S81–T451 with a C330S mutation; made in house; dialyzed conditioned medium used without purification; conditions: for SPR Response: Fig 2b
Description: The human Notum core sequence was cloned in a pHL-Avi3 vector[49] and co-transfected with the pDisplay_BirA-ER plasmid[50] into HEK293T cells with the media supplemented with 20 µM biotin. This procedure allows in vivo biotinylation to occur, and the dialyzed conditioned medium was directly used for SA sensor chip immobilization without protein purification. […] Approximately 2500 resonance units (RU) of the biotinylated Notum was coupled onto the chip. […] The response was plotted versus the concentration of the analytes and fitted by nonlinear regression to a one-site saturation binding model (GraphPad Prism 8).

Notum [3] = molecular target: T1, Notum; test: Notum activity assay with OPTS as substrate; assay type: biochemical; parameters: The human Notum enzyme core comprising amino acids S81–T451 with a C330S mutation; made in house; dialyzed conditioned medium used without purification; conditions: result in words
Description: OPTS is a common lipase substrate with an octanoyl lipid linked to a fluorescent moiety. It is not a natural Notum substrate; however, it can be used to quantify the enzymatic activity of purified Notum protein[23],[25],[28]. […] The fluorescent lipase substrate OPTS was dissolved in water at a concentration of 20 µM. […] The inhibition curves were fitted with a one-site model with GraphPad Prism 8 software.

Cn1c(=O)c2[nH]cnc2n(C)c1=O [theophylline, 1,3-dimethylxanthine]
Thermoflour melting curve fluorescence of Notum (Notum [1]; Temperature 24.5): 897.128
Thermoflour melting curve fluorescence of Notum (Notum [1]; Temperature 25.5): 765.384
Thermoflour melting curve fluorescence of Notum (Notum [1]; Temperature 26.5): 637.209
Thermoflour melting curve fluorescence of Notum (Notum [1]; Temperature 27.5): 518.408
Thermoflour melting curve fluorescence of Notum (Notum [1]; Temperature 28.5): 414.177
Thermoflour melting curve fluorescence of Notum (Notum [1]; Temperature 29.5): 331.765
Thermoflour melting curve fluorescence of Notum (Notum [1]; Temperature 30.5): 250.774
Thermoflour melting curve fluorescence of Notum (Notum [1]; Temperature 31.5): 158.442
Thermoflour melting curve fluorescence of Notum (Notum [1]; Temperature 32.5): 68.441
Thermoflour melting curve fluorescence of Notum (Notum [1]; Temperature 33.5): -19.5239
Thermoflour melting curve fluorescence of Notum (Notum [1]; Temperature 34.5): -111.255
Thermoflour melting curve fluorescence of Notum (Notum [1]; Temperature 35.5): -209.389
Thermoflour melting curve fluorescence of Notum (Notum [1]; Temperature 36.5): -312.731
Thermoflour melting curve fluorescence of Notum (Notum [1]; Temperature 37.5): -413.402
Thermoflour melting curve fluorescence of Notum (Notum [1]; Temperature 38.5): -500.183
Thermoflour melting curve fluorescence of Notum (Notum [1]; Temperature 39.5): -562.853
Thermoflour melting curve fluorescence of Notum (Notum [1]; Temperature 40.5): -610.744
Thermoflour melting curve fluorescence of Notum (Notum [1]; Temperature 41.5): -645.08
Thermoflour melting curve fluorescence of Notum (Notum [1]; Temperature 42.5): -650.416
Thermoflour melting curve fluorescence of Notum (Notum [1]; Temperature 43.5): -632.566
Thermoflour melting curve fluorescence of Notum (Notum [1]; Temperature 44.5): -596.655
Thermoflour melting curve fluorescence of Notum (Notum [1]; Temperature 45.5): -543.168
Thermoflour melting curve fluorescence of Notum (Notum [1]; Temperature 46.5): -459.896
Thermoflour melting curve fluorescence of Notum (Notum [1]; Temperature 47.5): -343.992
Thermoflour melting curve fluorescence of Notum (Notum [1]; Temperature 48.5): -208.285
Thermoflour melting curve fluorescence of Notum (Notum [1]; Temperature 49.5): -58.8655
Thermoflour melting curve fluorescence of Notum (Notum [1]; Temperature 50.5): 106.458
Thermoflour melting curve fluorescence of Notum (Notum [1]; Temperature 51.5): 280.009
Thermoflour melting curve fluorescence of Notum (Notum [1]; Temperature 52.5): 465.116
Thermoflour melting curve fluorescence of Notum (Notum [1]; Temperature 53.5): 688.929
Thermoflour melting curve fluorescence of Notum (Notum [1]; Temperature 54.5): 944.753
Thermoflour melting curve fluorescence of Notum (Notum [1]; Temperature 55.5): 1249.14
Thermoflour melting curve fluorescence of Notum (Notum [1]; Temperature 56.5): 1627.12
Thermoflour melting curve fluorescence of Notum (Notum [1]; Temperature 57.5): 2089.03
Thermoflour melting curve fluorescence of Notum (Notum [1]; Temperature 58.5): 2740.86
Thermoflour melting curve fluorescence of Notum (Notum [1]; Temperature 59.5): 3654.17
Thermoflour melting curve fluorescence of Notum (Notum [1]; Temperature 60.5): 4930.23
Thermoflour melting curve fluorescence of Notum (Notum [1]; Temperature 61.5): 6643.29
Thermoflour melting curve fluorescence of Notum (Notum [1]; Temperature 62.5): 8772.9
Thermoflour melting curve fluorescence of Notum (Notum [1]; Temperature 63.5): 11088.9
Thermoflour melting curve fluorescence of Notum (Notum [1]; Temperature 64.5): 13331.1
Thermoflour melting curve fluorescence of Notum (Notum [1]; Temperature 65.5): 15330
Thermoflour melting curve fluorescence of Notum (Notum [1]; Temperature 66.5): 16941.4
Thermoflour melting curve fluorescence of Notum (Notum [1]; Temperature 67.5): 18219.9
Thermoflour melting curve fluorescence of Notum (Notum [1]; Temperature 68.5): 19263.9
Thermoflour melting curve fluorescence of Notum (Notum [1]; Temperature 69.5): 20098.6
Thermoflour melting curve fluorescence of Notum (Notum [1]; Temperature 70.5): 20739.3
Thermoflour melting curve fluorescence of Notum (Notum [1]; Temperature 71.5): 21242.8
Thermoflour melting curve fluorescence of Notum (Notum [1]; Temperature 72.5): 21635.7
Thermoflour melting curve fluorescence of Notum (Notum [1]; Temperature 73.5): 21967.5
Thermoflour melting curve fluorescence of Notum (Notum [1]; Temperature 74.5): 22276.2
Thermoflour melting curve fluorescence of Notum (Notum [1]; Temperature 75.5): 22539.4
Thermoflour melting curve fluorescence of Notum (Notum [1]; Temperature 76.5): 22758.8
Thermoflour melting curve fluorescence of Notum (Notum [1]; Temperature 77.5): 22973.7
Thermoflour melting curve fluorescence of Notum (Notum [1]; Temperature 78.5): 23167.2
Thermoflour melting curve fluorescence of Notum (Notum [1]; Temperature 79.5): 23367.9
Thermoflour melting curve fluorescence of Notum (Notum [1]; Temperature 80.5): 23544.1
Thermoflour melting curve fluorescence of Notum (Notum [1]; Temperature 81.5): 23667.9
Thermoflour melting curve fluorescence of Notum (Notum [1]; Temperature 82.5): 23791
Thermoflour melting curve fluorescence of Notum (Notum [1]; Temperature 83.5): 23926.1
Thermoflour melting curve fluorescence of Notum (Notum [1]; Temperature 84.5): 24091.4
Thermoflour melting curve fluorescence of Notum (Notum [1]; Temperature 85.5): 24243.5
Thermoflour melting curve fluorescence of Notum (Notum [1]; Temperature 86.5): 24338.2
Thermoflour melting curve fluorescence of Notum (Notum [1]; Temperature 87.5): 24414.9
Thermoflour melting curve fluorescence of Notum (Notum [1]; Temperature 88.5): 24481.1
Thermoflour melting curve fluorescence of Notum (Notum [1]; Temperature 89.5): 24523
Thermoflour melting curve fluorescence of Notum (Notum [1]; Temperature 90.5): 24559.4
Thermoflour melting curve fluorescence of Notum (Notum [1]; Temperature 91.5): 24580.6
Thermoflour melting curve fluorescence of Notum (Notum [1]; Temperature 92.5): 24587.9
Thermoflour melting curve fluorescence of Notum (Notum [1]; Temperature 93.5): 24608.3
Thermoflour melting curve fluorescence of Notum (Notum [1]; Temperature 94.5): 24615
Thermoflour melting curve fluorescence of Notum (Notum [1]; Temperature 95.5): 24596.6
Thermoflour melting curve fluorescence of Notum (Notum [1]; Temperature 96.5): 24576.1
Thermoflour melting curve fluorescence of Notum (Notum [1]; Temperature 97.5): 24555
Effect on Tm of Notum (Notum [1]): very weak binding to Notum
∆Tm of Notum (Notum [1]; versus Notum without compounds): about 1 °C
Melting temperature (Tm) of Notum (Notum [1]; Notum without compounds Tm 63.6 °C): 64.5 °C
SPR Response (Notum [2]; theophylline conc. 8.138e-6 (unit not given)): 6
SPR Response (Notum [2]; theophylline conc. 1.628e-5 (unit not given)): 5.14
SPR Response (Notum [2]; theophylline conc. 3.255e-5 (unit not given)): 5.26
SPR Response (Notum [2]; theophylline conc. 6.51e-5 (unit not given)): 4.57
SPR Response (Notum [2]; theophylline conc. 0.0001302 (unit not given)): 4.5
SPR Response (Notum [2]; theophylline conc. 0.0002604 (unit not given)): 4.84
SPR Response (Notum [2]; theophylline conc. 0.0005208 (unit not given)): 5.18
SPR Response (Notum [2]; theophylline conc. 0.001042 (unit not given)): 6.64
SPR Response (Notum [2]; theophylline conc. 0.002083 (unit not given)): 9.15
SPR Response (Notum [2]; theophylline conc. 0.004167 (unit not given)): 13.17
SPR Response (Notum [2]; theophylline conc. 0.008333 (unit not given)): 19.59
SPR Response (Notum [2]; theophylline conc. 0.01667 (unit not given)): 29.6
Binding to Notum (SPR response) (Notum [2]; result in words): weak binding; also recorded: very weak binding
Notum inhibitory effect in OPTS enzyme assay (Notum [3]): not sufficient to inhibit Notum enzyme activity; also recorded: could not detect obvious Notum inhibitory effects
